# Measurements reported in ChEMBL document CHEMBL4049399, “Novel pyrrolopyrimidines as Mps1/TTK kinase inhibitors for breast cancer” (Bioorg Med Chem, 2017).
# Activity calls are given as the source filed them. No cut-off for these calls is given here.
# Legend:
# [1] = system: CAL-51; test: Antiproliferative activity against human CAL51 cells assessed as reduction in cell viability after 5 to 7 days by CellTiter 96 aqueous solution assay; format: functional, cell-based
# [2] = system: HCC1937; test: Antiproliferative activity against human HCC1937 cells assessed as reduction in cell viability after 5 to 7 days by CellTiter 96 aqueous solution assay; format: functional, cell-based
# [3] = system: BT-20; test: Antiproliferative activity against human BT20 cells assessed as reduction in cell viability after 5 to 7 days by CellTiter 96 aqueous solution assay; format: functional, cell-based
# [4] = system: Hs-578T; test: Antiproliferative activity against human Hs578T cells assessed as reduction in cell viability after 5 to 7 days by CellTiter 96 aqueous solution assay; format: functional, cell-based
# [5] = system: MDA-MB-231; test: Antiproliferative activity against human MDA-MB-231 cells assessed as reduction in cell viability after 5 to 7 days by CellTiter 96 aqueous solution assay; format: functional, cell-based
# [6] = system: CAMA-1; test: Antiproliferative activity against human CAMA1 cells assessed as reduction in cell viability after 5 to 7 days by CellTiter 96 aqueous solution assay; format: functional, cell-based
# [7] = system: SK-BR-3; test: Antiproliferative activity against human SK-BR-3 cells assessed as reduction in cell viability after 5 to 7 days by CellTiter 96 aqueous solution assay; format: functional, cell-based
# [8] = system: AU565; test: Antiproliferative activity against human AU565 cells assessed as reduction in cell viability after 5 to 7 days by CellTiter 96 aqueous solution assay; format: functional, cell-based
# [9] = system: T47D; test: Antiproliferative activity against human T47D cells assessed as reduction in cell viability after 5 to 7 days by CellTiter 96 aqueous solution assay; format: functional, cell-based
# [10] = system: MCF7; test: Antiproliferative activity against human MCF7 cells assessed as reduction in cell viability after 5 to 7 days by CellTiter 96 aqueous solution assay; format: functional, cell-based
# [11] = molecular target: Tyrosine-protein kinase SYK (Homo sapiens, UniProt P43405); test: Inhibition of human SYK using poly[Glu:Tyr] (4:1) as substrate in presence of [gamma-32P]ATP
# [12] = molecular target: Non-receptor tyrosine-protein kinase TYK2 (Homo sapiens, UniProt P29597); test: Inhibition of human TYK2 using KKSRGDYMTMQIG as substrate in presence of [gamma-32P]ATP
# [13] = molecular target: Phosphatidylinositol 4,5-bisphosphate 3-kinase catalytic subunit beta isoform (Homo sapiens, UniProt P42338); test: Inhibition of PI3Kbeta (unknown origin)
# [14] = molecular target: T1, Dual specificity protein kinase TTK (Homo sapiens) (UniProt P33981); test: Inhibition of Mps1/TTK in human CAL51 cells assessed as reduction in centriole assembly during S-phase by measuring increase in BrdU positive cells with two centrioles incubated for 24 hrs followed by BrdU incorporation during last 4 hrs of incubation; format: cell-based
# T1 sequence (whole entry): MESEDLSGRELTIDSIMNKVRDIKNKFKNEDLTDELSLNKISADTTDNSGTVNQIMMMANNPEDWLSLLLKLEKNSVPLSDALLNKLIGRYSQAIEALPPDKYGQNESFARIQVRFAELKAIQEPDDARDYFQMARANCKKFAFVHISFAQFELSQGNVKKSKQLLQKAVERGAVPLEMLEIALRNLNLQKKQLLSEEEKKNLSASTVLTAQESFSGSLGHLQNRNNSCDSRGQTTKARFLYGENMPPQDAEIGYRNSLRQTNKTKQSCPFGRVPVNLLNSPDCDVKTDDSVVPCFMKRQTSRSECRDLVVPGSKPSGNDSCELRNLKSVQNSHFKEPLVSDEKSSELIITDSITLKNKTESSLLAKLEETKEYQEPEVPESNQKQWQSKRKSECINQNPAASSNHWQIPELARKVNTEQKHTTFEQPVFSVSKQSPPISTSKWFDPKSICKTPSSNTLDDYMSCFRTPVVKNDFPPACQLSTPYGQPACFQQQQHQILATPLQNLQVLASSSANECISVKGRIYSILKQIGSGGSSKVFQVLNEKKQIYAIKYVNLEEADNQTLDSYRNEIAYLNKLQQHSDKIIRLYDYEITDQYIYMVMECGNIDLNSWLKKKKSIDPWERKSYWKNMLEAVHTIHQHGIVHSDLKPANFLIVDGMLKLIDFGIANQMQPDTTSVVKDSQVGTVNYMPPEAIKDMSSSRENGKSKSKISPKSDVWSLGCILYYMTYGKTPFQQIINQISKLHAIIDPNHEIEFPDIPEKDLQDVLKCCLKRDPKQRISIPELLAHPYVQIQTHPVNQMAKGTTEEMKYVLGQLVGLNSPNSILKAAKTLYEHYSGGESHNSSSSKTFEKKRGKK
# [15] = molecular target: T1, Dual specificity protein kinase TTK (Homo sapiens); test: Inhibition of Mps1/TTK in human CAL51 cells assessed as reduction in centrosome amplification during S-phase by measuring decrease in cells with more than four centrioles incubated for 24 hrs followed by BrdU incorporation during last 4 hrs of incubation; format: cell-based
# [16] = system: CAL-51; test: Cytotoxicity against human CAL51 cells assessed as reduction in cell viability at 25 uM after 24 hrs by BrdU incorporation assay relative to control; format: functional
# [17] = molecular target: T1, Dual specificity protein kinase TTK (Homo sapiens); test: Inhibition of Mps1/TTK in human CAL51 cells assessed as spindle assembly checkpoint arrest in response to nocodazole by measuring decrease in cyclin B level up to 10 uM by immunoblotting method; format: cell-based
# [18] = Solubility of the compound in DMSO by absorption spectrometric method; format: physicochemical
# [19] = Solubility of the compound in 10:5:10:75 DMSO/Tween80/PEG400/saline by absorption spectrometric method; format: physicochemical
# [20] = Systemic clearance in ICR mouse at 20 mg/kg, iv by LC-MS/MS analysis; format: ADME, organism-based; details: in vivo
# [21] = Elimination half-life in ICR mouse at 20 mg/kg, iv by LC-MS/MS analysis; format: ADME, organism-based; details: in vivo, read-out: beta t1/2 (converted)
# [22] = AUC in ICR mouse at 50 mg/kg, ip by LC-MS/MS analysis; format: ADME, organism-based; details: in vivo
# [23] = system: CAL-51; test: Antitumor activity against human CAL51 cells xenografted in athymic nude mouse assessed as reduction in tumor growth at 10 mg/kg, ip administered once daily measured after 3 to 7 weeks; format: functional, organism-based
# [24] = system: CAL-51; test: Antitumor activity against human CAL51 cells xenografted in athymic nude mouse assessed as reduction in tumor weight at 10 mg/kg, ip administered once daily measured after 7 weeks; format: functional, organism-based
# [25] = system: Mus musculus; test: Toxicity in athymic nude mouse assessed as body weight at 10 mg/kg, ip measured immediately (reference value: 20 to 26 g); format: organism-based; details: in vivo
# [26] = system: Mus musculus; test: Toxicity in athymic nude mouse assessed as body weight at 10 mg/kg, ip administered once daily for 7 weeks measured at post last dose (reference value: 20 to 26 g); format: organism-based; details: in vivo, 1176 h
# [27] = molecular target: T1, Dual specificity protein kinase TTK (Homo sapiens); details: 1 uM
# [28] = molecular target: T1, Dual specificity protein kinase TTK (Homo sapiens); details: 1 uM; remark: listed apart in the source
# [29] = system: BT-549; test: Antiproliferative activity against human BT549 cells assessed as reduction in cell viability after 5 to 7 days by CellTiter 96 aqueous solution assay; format: functional, cell-based
# [30] = system: MDA-MB-436; test: Antiproliferative activity against human MDA-MB-436 cells assessed as reduction in cell viability after 5 to 7 days by CellTiter 96 aqueous solution assay; format: functional, cell-based
# [31] = system: MDA-MB-468; test: Antiproliferative activity against human MDA-MB-468 cells assessed as reduction in cell viability after 5 to 7 days by CellTiter 96 aqueous solution assay; format: functional, cell-based
# [32] = system: MDA-MB-453; test: Antiproliferative activity against human MDA-MB-453 cells assessed as reduction in cell viability after 5 to 7 days by CellTiter 96 aqueous solution assay; format: functional, cell-based
# [33] = system: BT-474; test: Antiproliferative activity against human BT474 cells assessed as reduction in cell viability after 5 to 7 days by CellTiter 96 aqueous solution assay; format: functional, cell-based
# [34] = molecular target: T1, Dual specificity protein kinase TTK (Homo sapiens); test: Inhibition of Mps1/TTK in human MDA-MB-468 cells assessed as cell cycle arrest at mitotic stage by measuring decrease in spindle assembly checkpoint arrest in response to nocodazole by DAPI/Hoechst staining based assay
# Sequence of Non-receptor tyrosine-protein kinase TYK2 (P29597 whole entry, canonical isoform): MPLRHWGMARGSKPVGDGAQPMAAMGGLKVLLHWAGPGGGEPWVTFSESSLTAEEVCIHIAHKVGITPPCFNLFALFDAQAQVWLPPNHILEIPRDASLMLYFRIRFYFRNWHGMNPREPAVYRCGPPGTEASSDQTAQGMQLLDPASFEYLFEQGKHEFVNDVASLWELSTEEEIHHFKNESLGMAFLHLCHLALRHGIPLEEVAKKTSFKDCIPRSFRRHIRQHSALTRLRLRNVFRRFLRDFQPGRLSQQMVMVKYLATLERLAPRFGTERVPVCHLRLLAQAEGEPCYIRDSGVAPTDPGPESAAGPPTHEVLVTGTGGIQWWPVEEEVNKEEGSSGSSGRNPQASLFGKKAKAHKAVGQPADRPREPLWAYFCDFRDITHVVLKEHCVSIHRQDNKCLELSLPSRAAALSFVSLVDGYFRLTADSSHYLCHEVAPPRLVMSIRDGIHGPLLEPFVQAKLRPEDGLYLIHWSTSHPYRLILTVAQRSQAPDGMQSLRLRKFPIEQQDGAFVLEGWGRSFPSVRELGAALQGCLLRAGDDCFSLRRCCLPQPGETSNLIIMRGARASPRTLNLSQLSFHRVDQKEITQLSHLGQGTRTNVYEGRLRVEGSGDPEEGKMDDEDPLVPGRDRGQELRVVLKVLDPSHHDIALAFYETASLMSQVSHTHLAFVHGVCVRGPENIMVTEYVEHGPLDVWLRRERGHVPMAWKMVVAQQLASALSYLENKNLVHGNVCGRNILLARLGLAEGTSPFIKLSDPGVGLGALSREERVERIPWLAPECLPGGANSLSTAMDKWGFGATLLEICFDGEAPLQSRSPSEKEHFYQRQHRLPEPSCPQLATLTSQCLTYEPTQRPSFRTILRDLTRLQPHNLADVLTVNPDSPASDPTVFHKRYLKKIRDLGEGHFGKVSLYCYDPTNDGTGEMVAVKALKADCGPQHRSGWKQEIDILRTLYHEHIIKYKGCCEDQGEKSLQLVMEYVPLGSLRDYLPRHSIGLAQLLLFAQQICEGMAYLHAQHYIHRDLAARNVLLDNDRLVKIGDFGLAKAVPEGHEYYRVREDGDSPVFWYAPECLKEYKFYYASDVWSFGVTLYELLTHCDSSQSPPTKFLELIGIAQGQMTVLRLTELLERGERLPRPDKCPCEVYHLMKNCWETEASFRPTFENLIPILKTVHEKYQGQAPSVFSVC
# Sequence of Phosphatidylinositol 4,5-bisphosphate 3-kinase catalytic subunit beta isoform (P42338 whole entry, canonical isoform): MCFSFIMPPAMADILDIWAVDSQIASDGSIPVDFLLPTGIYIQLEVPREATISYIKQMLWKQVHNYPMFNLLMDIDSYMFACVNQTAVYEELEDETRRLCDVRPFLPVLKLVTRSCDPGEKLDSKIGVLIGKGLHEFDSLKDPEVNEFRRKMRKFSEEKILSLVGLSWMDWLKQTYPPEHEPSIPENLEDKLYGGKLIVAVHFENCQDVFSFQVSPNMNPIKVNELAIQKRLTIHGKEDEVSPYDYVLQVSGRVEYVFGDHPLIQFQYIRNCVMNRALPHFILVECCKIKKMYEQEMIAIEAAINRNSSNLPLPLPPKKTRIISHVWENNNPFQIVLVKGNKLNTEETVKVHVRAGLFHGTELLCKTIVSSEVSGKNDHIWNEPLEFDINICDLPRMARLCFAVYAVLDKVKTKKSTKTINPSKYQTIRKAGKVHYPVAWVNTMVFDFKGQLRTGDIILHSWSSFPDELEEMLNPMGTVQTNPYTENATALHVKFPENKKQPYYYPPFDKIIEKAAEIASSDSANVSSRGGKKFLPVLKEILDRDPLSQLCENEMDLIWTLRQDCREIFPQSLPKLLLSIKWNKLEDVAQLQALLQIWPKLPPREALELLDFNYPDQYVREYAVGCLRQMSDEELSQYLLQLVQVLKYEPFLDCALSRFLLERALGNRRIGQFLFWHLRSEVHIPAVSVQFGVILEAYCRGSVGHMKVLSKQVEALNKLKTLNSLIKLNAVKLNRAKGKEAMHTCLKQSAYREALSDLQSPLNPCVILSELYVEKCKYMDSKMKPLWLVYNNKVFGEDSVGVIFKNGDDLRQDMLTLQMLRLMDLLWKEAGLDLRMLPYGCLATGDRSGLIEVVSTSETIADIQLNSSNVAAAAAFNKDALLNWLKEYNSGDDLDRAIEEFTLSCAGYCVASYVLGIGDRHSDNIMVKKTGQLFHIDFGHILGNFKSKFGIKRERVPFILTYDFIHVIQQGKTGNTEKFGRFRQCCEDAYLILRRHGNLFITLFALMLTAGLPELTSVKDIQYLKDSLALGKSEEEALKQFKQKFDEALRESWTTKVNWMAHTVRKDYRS
Structure (SMILES),IC50 [1] [nM],IC50 [2] [nM],IC50 [3] [nM],IC50 [4] [µM],IC50 [5] [µM],IC50 [6] [nM],IC50 [7] [nM],IC50 [8] [µM],IC50 [9] [µM],IC50 [10] [nM],inhibition [14],inhibition [15],inhibition [17],IC50 [29] [nM],IC50 [30] [nM],IC50 [31] [nM],IC50 [32] [µM],IC50 [33] [nM],other results
COc1cc(N2CCOCC2)ccc1Nc1nc(NC2CCCCC2)c2cc[nH]c2n1,550,1020,370,> 10,> 10,600,400,0.95,> 10,> 10000,Dose-dependent effect,Dose-dependent effect,Active,,,,,,IC50 [11]: 153 µM; IC50 [12]: 132 µM; IC50 [13]: 40.6 µM; Activity [16]: 70%; solubility [18]: 53.4 mg/mL; solubility [19]: 5000 µg/mL; clearance [20]: 292 mL/min/kg; half-life [21]: 137 min; AUC [22]: 8460 ng·h/mL; TGI [23]: Active; Activity [24]: Active; Activity [25]: 24 g; Activity [26]: 26 g; inhibition [27]: Active; inhibition [28]: Active
COc1cc(N2CCC(O)CC2)ccc1Nc1cc(Nc2ccccc2S(=O)(=O)C(C)C)c2cc[nH]c2n1,2920,> 10000,> 10000,> 10,> 10,> 10000,> 10000,> 10,> 10,> 10000,,,,1730,> 10000,1850,> 10,> 10000,
COc1ccccc1Nc1nc(Nc2ccccc2S(=O)(=O)C(C)C)c2cc[nH]c2n1,1260,840,60,> 10,0.4,840,750,> 10,0.33,350,,,,2190,5230,1570,> 10,470,
COc1cc(N2CCOCC2)ccc1Nc1nc(Nc2ccccc2S(=O)(=O)C(C)C)c2cc[nH]c2n1,300,1100,1710,> 10,> 10,650,470,> 10,> 10,300,,,,1300,1230,320,> 10,290,
COc1cc(N2CCC(O)CC2)ccc1Nc1nc(Nc2ccccc2S(=O)(=O)C(C)C)c2cc[nH]c2n1,230,730,350,> 10,> 10,360,> 10000,> 10,> 10,440,Dose-dependent effect,Dose-dependent effect,Active,810,900,190,0.82,> 10000,inhibition [34]: Dose-dependent effect
